Data reported in the NIST ThermoML archive (doi:10.1016/j.jct.2010.08.019).

Experiment: xn = mol fraction of the nth substance listed
Settings: for surface tension liquid-gas: Wilhelmy-plate method; for viscosity / mass density: 101 kPa, Liquid; for viscosity: Falling or rolling sphere viscometry; for mass density: Vibrating tube method

C1CCOCC1 [tetrahydropyran] + CC(C)O
Settings | mass density [kg/m3] | surface tension liquid-gas [mN/m] | viscosity [mPa·s]
293.15 K, x2 = 0 | 884.27 | 27.5 | 0.86
293.15 K, x2 = 0.0501 | 879.89 | 27.2 | 0.852
293.15 K, x2 = 0.0999 | 875.5 | 26.9 | 0.845
293.15 K, x2 = 0.1499 | 871.09 | 26.6 | 0.849
293.15 K, x2 = 0.2003 | 866.62 | 26.3 | 0.85
293.15 K, x2 = 0.2506 | 862.13 | 26 | 0.855
293.15 K, x2 = 0.2999 | 857.7 | 25.7 | 0.864
293.15 K, x2 = 0.35 | 853.13 | 25.4 | 0.877
293.15 K, x2 = 0.3999 | 848.52 | 25 | 0.899
293.15 K, x2 = 0.4499 | 843.87 | 24.7 | 0.922
293.15 K, x2 = 0.5001 | 839.07 | 24.4 | 0.947
293.15 K, x2 = 0.5502 | 834.22 | 24 | 0.983
293.15 K, x2 = 0.6001 | 829.28 | 23.7 | 1.032
293.15 K, x2 = 0.6499 | 824.23 | 23.4 | 1.095
293.15 K, x2 = 0.7001 | 819.03 | 23.1 | 1.164
293.15 K, x2 = 0.7499 | 813.78 | 22.7 | 1.256
293.15 K, x2 = 0.8 | 808.34 | 22.4 | 1.378
293.15 K, x2 = 0.8501 | 802.8 | 22.1 | 1.535
293.15 K, x2 = 0.9001 | 797.15 | 21.9 | 1.739
293.15 K, x2 = 0.9499 | 791.36 | 21.6 | 2.013
303.15 K, x2 = 0 | 874.07 | 26.2 | 0.749
303.15 K, x2 = 0.0502 | 869.6 | 26 | 0.737
303.15 K, x2 = 0.1001 | 865.24 | 25.7 | 0.729
303.15 K, x2 = 0.1501 | 860.87 | 25.4 | 0.728
303.15 K, x2 = 0.1998 | 856.52 | 25.1 | 0.725
303.15 K, x2 = 0.2499 | 852.09 | 24.8 | 0.729
303.15 K, x2 = 0.3 | 847.66 | 24.5 | 0.737
303.15 K, x2 = 0.3499 | 843.17 | 24.2 | 0.75
303.15 K, x2 = 0.4001 | 838.59 | 23.9 | 0.76
303.15 K, x2 = 0.4501 | 833.98 | 23.6 | 0.779
303.15 K, x2 = 0.5001 | 829.29 | 23.3 | 0.8
303.15 K, x2 = 0.55 | 824.54 | 22.9 | 0.825
303.15 K, x2 = 0.6 | 819.65 | 22.6 | 0.861
303.15 K, x2 = 0.65 | 814.69 | 22.3 | 0.905
303.15 K, x2 = 0.6999 | 809.62 | 22 | 0.958
303.15 K, x2 = 0.7499 | 804.47 | 21.7 | 1.021
303.15 K, x2 = 0.8001 | 799.17 | 21.4 | 1.108
303.15 K, x2 = 0.85 | 793.77 | 21.2 | 1.214
303.15 K, x2 = 0.8998 | 788.25 | 20.9 | 1.356
303.15 K, x2 = 0.9499 | 782.59 | 20.6 | 1.533
313.15 K, x2 = 0 | 863.76 | 25.1 | 0.658
313.15 K, x2 = 0.05 | 859.32 | 24.9 | 0.645
313.15 K, x2 = 0.1 | 854.97 | 24.6 | 0.639
313.15 K, x2 = 0.1501 | 850.64 | 24.3 | 0.634
313.15 K, x2 = 0.2 | 846.27 | 24.1 | 0.633
313.15 K, x2 = 0.2499 | 841.92 | 23.8 | 0.635
313.15 K, x2 = 0.2997 | 837.55 | 23.5 | 0.638
313.15 K, x2 = 0.3499 | 833.09 | 23.2 | 0.646
313.15 K, x2 = 0.4 | 828.58 | 22.9 | 0.656
313.15 K, x2 = 0.4504 | 823.98 | 22.6 | 0.667
313.15 K, x2 = 0.5001 | 819.37 | 22.3 | 0.682
313.15 K, x2 = 0.55 | 814.68 | 22 | 0.704
313.15 K, x2 = 0.5999 | 809.9 | 21.7 | 0.725
313.15 K, x2 = 0.65 | 805.04 | 21.4 | 0.758
313.15 K, x2 = 0.7001 | 800.07 | 21.1 | 0.796
313.15 K, x2 = 0.7502 | 794.95 | 20.8 | 0.844
313.15 K, x2 = 0.7999 | 789.8 | 20.6 | 0.901
313.15 K, x2 = 0.85 | 784.49 | 20.3 | 0.976
313.15 K, x2 = 0.8998 | 779.1 | 20.1 | 1.069
313.15 K, x2 = 0.9498 | 773.58 | 19.8 | 1.187
323.15 K, x2 = 0 | 666.8 | 23.8 | 0.565
323.15 K, x2 = 0.05 | – | 23.5 | 0.562
323.15 K, x2 = 0.0501 | 667.65 | – | –
323.15 K, x2 = 0.1 | 669.08 | 23.3 | 0.558
323.15 K, x2 = 0.15 | 670.98 | – | –
323.15 K, x2 = 0.1501 | – | 23.1 | 0.553
323.15 K, x2 = 0.1998 | 673.08 | – | –
323.15 K, x2 = 0.2 | – | 22.8 | 0.55
323.15 K, x2 = 0.2499 | – | 22.6 | 0.55
323.15 K, x2 = 0.25 | 675.42 | – | –
323.15 K, x2 = 0.2997 | – | 22.3 | 0.553
323.15 K, x2 = 0.3 | 677.99 | – | –
323.15 K, x2 = 0.3499 | – | 22 | 0.557
323.15 K, x2 = 0.35 | 680.86 | – | –
323.15 K, x2 = 0.4 | 683.93 | 21.8 | 0.563
323.15 K, x2 = 0.4499 | 687.34 | – | –
323.15 K, x2 = 0.4504 | – | 21.5 | 0.571
323.15 K, x2 = 0.5 | 691.07 | – | –
323.15 K, x2 = 0.5001 | – | 21.2 | 0.582
323.15 K, x2 = 0.5501 | 695.17 | 20.9 | 0.596
323.15 K, x2 = 0.6 | 699.74 | 20.7 | 0.615
323.15 K, x2 = 0.65 | 704.78 | 20.4 | 0.635
323.15 K, x2 = 0.6999 | – | 20.1 | 0.661
323.15 K, x2 = 0.7 | 710.22 | – | –
323.15 K, x2 = 0.7499 | 716.22 | – | –
323.15 K, x2 = 0.7502 | – | 19.9 | 0.697
323.15 K, x2 = 0.7999 | 722.88 | – | –
323.15 K, x2 = 0.8002 | – | 19.6 | 0.739
323.15 K, x2 = 0.85 | 730.48 | – | –
323.15 K, x2 = 0.8501 | – | 19.4 | 0.79
323.15 K, x2 = 0.8998 | – | 19.2 | 0.85
323.15 K, x2 = 0.9 | 738.82 | – | –
323.15 K, x2 = 0.95 | 748.16 | – | –
323.15 K, x2 = 0.9501 | – | 19 | 0.927
